The test system of assay [1] is HEK293. Nature of the assay: Inhibition of Wnt/beta-catenin pathway in HEK293 cells assessed as downregulation of Wnt3a-CM-activated beta-catenin expression at 1.5 to 6 uM after 15 hrs by Western blot analysis. The class given is cell-based. To be noted: Homo sapiens. In general terms: A western blot detects proteins with antibodies after separation by electrophoresis.

The subject of assay [2] is SW480. Nature of the assay: Cytotoxicity against human SW480 cells assessed as growth inhibition at >20 uM after 48 hrs by Cell-Titer-Glo assay in presence of 5-epi-nakijinone. The class given is functional, cell-based.
Assay [3] has as its system HCT-116. The assay is described as follows: Cytotoxicity against human HCT116 cells assessed as growth inhibition at >20 uM after 48 hrs by Cell-Titer-Glo assay in presence of 5-epi-nakijinone. It is filed as functional, cell-based.
Assay [4] relates to HEK293. The assay is described as follows: Inhibition of Wnt/beta-catenin pathway in HEK293 cells assessed as decrease in Wnt3a-CM-induced beta-catenin response regulated transcription level at 10 to 40 uM after 15 hrs by TOPflash reporter gene assay in presence of 5-epi-nakijinone. The class given is cell-based. Conditions: Homo sapiens. Background: In a reporter assay the amount or activity of a reporter protein is the signal.

In assay [5] the test system is HCT-116. The assay is described as follows: Cytotoxicity against human HCT116 cells assessed as growth inhibition at >20 uM after 48 hrs by Cell-Titer-Glo assay. It is filed as functional, cell-based.
For assay [6], the system named is HEK293. Nature of the assay: Inhibition of Wnt/beta-catenin pathway in HEK293 cells assessed as decrease in Wnt3a-CM-induced beta-catenin response regulated transcription level at 10 to 40 uM after 15 hrs by TOPflash reporter gene assay. It is filed as cell-based. To be noted: Homo sapiens.
Assay [7] has as its system SW480. The assay is described as follows: Cytotoxicity against human SW480 cells assessed as growth inhibition at >20 uM after 48 hrs by Cell-Titer-Glo assay. The class given is functional, cell-based.
In assay [8] the test system is HEK293. The assay is described as follows: Inhibition of Wnt/beta-catenin pathway in HEK293 cells assessed as downregulation of Wnt3a-CM-activated beta-catenin expression at 10 to 40 uM after 15 hrs by Western blot analysis. The class given is cell-based. Conditions: Homo sapiens.
The test system of assay [9] is HEK293. Nature of the assay: Inhibition of Wnt/beta-catenin pathway in HEK293 cells assessed as decrease in Wnt3a-CM-induced beta-catenin response regulated transcription level at 1.5 to 6 uM after 15 hrs by TOPflash reporter gene assay. It is filed as cell-based. Conditions: Homo sapiens.
For assay [10], the system named is HCT-116. The assay is described as follows: Cytotoxicity against human HCT116 cells assessed as growth inhibition after 48 hrs by Cell-Titer-Glo assay. Conditions: HCT-116, 48 h. The class given is functional, cell-based.
The subject of assay [11] is HEK293. Nature of the assay: Inhibition of Wnt/beta-catenin pathway in HEK293 cells assessed as downregulation of Wnt3a-CM-activated beta-catenin expression at 10 to 40 uM after 15 hrs by Western blot analysis in presence of 5-epi-nakijinone. It is filed as cell-based. Conditions: Homo sapiens.
Assay [12] has as its system SW480. Nature of the assay: Cytotoxicity against human SW480 cells assessed as growth inhibition after 48 hrs by Cell-Titer-Glo assay. It is filed as functional, cell-based. Conditions: SW480, 48 h.

The record followed here is ChEMBL document CHEMBL3576867, “Cytotoxic activity of rearranged drimane meroterpenoids against colon cancer cells via down-regulation of β-catenin expression” (J Nat Prod, 2015).

The source made the active and inactive calls. The rule behind the calls is not given here.

The IC50 is the concentration that gives 50% inhibition.

On to `C=C1CCC[C@H]2[C@](C)(CC3=C4OC(C)(C)N=C4C=C(OC)C3=O)[C@@H](C)CC[C@]12C`, for which the inhibition entry with HEK293 [1] and with HEK293 [4] was “Active” in each case. Also, the “growth inhibition (GI)” value in the assay with SW480 [2] and in the assay on HCT-116 [3] was “Active” each time.
With `C=C1CCC[C@H]2[C@](C)(Cc3c(O)c(OC)cc4nc(C)oc34)[C@@H](C)CC[C@@]12C`, the “growth inhibition (GI)” value with HCT-116 [5] and with SW480 [7] was “Active” throughout. Also, the inhibition result in the assay on HEK293 [6] and with HEK293 [8] was “Active” throughout.
`C=C1CCC[C@H]2[C@](C)(CC3=C(O)C(=O)C=C(OCC)C3=O)[C@@H](C)CC[C@@]12C`: the inhibition result in the assay on HEK293 [9] and in the assay on HEK293 [11] was “Active” in each case. The IC50 in the assay with HCT-116 [10] was determined as 2.95 µM; in the assay with SW480 [12] it was 3.24 µM.
